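Growth conditions: 96-well plates. Treatment: test compound, 48 hours, 5 concentrations. Analysis: linear interpolation between bracketing concentrations; unreached endpoints set to highest concentration. Abbreviation: GI50, concentration required for 50% inhibition of growth.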 Calls of active or inactive are those of the source. Cut-off read from the data, not from the text of the source: active = GI50 up to about 1.1 µM and inactive = higher.
Assays:
Test in all cases: NCI anticancer screen, dose series, 48 h
[1] = tested on: NCI-H522
[2] = tested on: MOLT-4
[3] = tested on: HT-29
[4] = tested on: SK-MEL-2
[5] = tested on: ACHN
[6] = tested on: OVCAR-4
[7] = tested on: M14
[8] = tested on: CCRF-CEM
[9] = tested on: KM12
[10] = tested on: K562
[11] = tested on: KM-20L2
[12] = tested on: HCT-15
[13] = tested on: OVCAR-8
[14] = tested on: DLD-1
[15] = tested on: SN12C
[16] = tested on: DMS-114
[17] = tested on: NCI-H460
[18] = tested on: DMS-273
[19] = tested on: TK-10
[20] = tested on: 786-0
[21] = tested on: SK-OV-3
[22] = tested on: OVCAR-3
[23] = tested on: HCT-116
[24] = tested on: LOX IMVI
[25] = tested on: M19-MEL
[26] = tested on: UO-31
[27] = tested on: U-251
[28] = tested on: RPMI-8226
[29] = tested on: SNB-19
[30] = tested on: SF-539
[31] = tested on: HOP-92
[32] = tested on: SF-268
[33] = tested on: A549
[34] = tested on: SF-295
[35] = tested on: NCI-H23
[36] = tested on: OVCAR-5
[37] = tested on: XF498
[38] = tested on: Malme-3M
[39] = tested on: SNB-75
[40] = tested on: UACC-62
[41] = tested on: SW-620
[42] = tested on: IGROV-1
[43] = tested on: SK-MEL-5
[44] = tested on: COLO 205
[45] = tested on: LXFL 529
[46] = tested on: A498
[47] = tested on: RXF 631
[48] = tested on: SK-MEL-28
[49] = tested on: HOP-62
[50] = tested on: EKVX
[51] = tested on: UACC-257
[52] = tested on: HCC 2998
[53] = tested on: SNB-78
[54] = tested on: RXF 393
[55] = tested on: NCI-H226
[56] = tested on: HL-60

## COc1cc(-c2cc(=O)c3cc(C)c(C)c(C(=O)O)c3o2)cc(OC)c1OC
[1]
  GI50: 67.6 µM (inactive)
[2]
  GI50: > 100 µM (inactive)
[3]
  GI50: > 100 µM (inactive)
[4]
  GI50: > 100 µM (inactive)
[5]
  GI50: > 100 µM (inactive)
[6]
  GI50: > 100 µM (inactive)
[7]
  GI50: > 100 µM (inactive)
[8]
  GI50: > 100 µM (inactive)
[9]
  GI50: > 100 µM (inactive)
[10]
  GI50: > 100 µM (inactive)
[11]
  GI50: > 100 µM (inactive)
[12]
  GI50: > 100 µM
[13]
  GI50: > 100 µM (inactive)
[14]
  GI50: > 100 µM (inactive)
[15]
  GI50: > 100 µM (inactive)
[16]
  GI50: > 100 µM (inactive)
[17]
  GI50: > 100 µM (inactive)
[18]
  GI50: > 100 µM (inactive)
[19]
  GI50: > 100 µM (inactive)
[20]
  GI50: > 100 µM (inactive)
[21]
  GI50: > 100 µM (inactive)
[22]
  GI50: > 100 µM (inactive)
[23]
  GI50: > 100 µM (inactive)
[24]
  GI50: > 100 µM (inactive)
[25]
  GI50: > 100 µM (inactive)
[26]
  GI50: > 100 µM (inactive)
[27]
  GI50: > 100 µM (inactive)
[28]
  GI50: > 100 µM (inactive)
[29]
  GI50: > 100 µM (inactive)
[30]
  GI50: > 100 µM (inactive)
[31]
  GI50: > 100 µM (inactive)
[32]
  GI50: > 100 µM (inactive)
[33]
  GI50: > 100 µM (inactive)
[34]
  GI50: > 100 µM (inactive)
[35]
  GI50: > 100 µM (inactive)
[36]
  GI50: > 100 µM (inactive)
[37]
  GI50: > 100 µM (inactive)
[38]
  GI50: > 100 µM (inactive)
[39]
  GI50: 2.32 µM (inactive)
[40]
  GI50: > 100 µM (inactive)
[41]
  GI50: > 100 µM (inactive)
[42]
  GI50: > 100 µM (inactive)
[43]
  GI50: > 100 µM (inactive)
[44]
  GI50: > 100 µM (inactive)
[45]
  GI50: > 100 µM (inactive)
[46]
  GI50: > 100 µM (inactive)
[47]
  GI50: > 100 µM (inactive)
[48]
  GI50: > 100 µM (inactive)
[49]
  GI50: > 100 µM (inactive)
[50]
  GI50: > 100 µM (inactive)
[51]
  GI50: > 100 µM (inactive)
[52]
  GI50: > 100 µM (inactive)
[53]
  GI50: > 100 µM (inactive)

## C/C(CC(=O)NCCc1ccccc1)=N\NC(=O)C[n+]1ccccc1
[1]
  GI50: > 100 µM (inactive)
[2]
  GI50: > 100 µM (inactive)
[3]
  GI50: > 100 µM (inactive)
[4]
  GI50: > 100 µM (inactive)
[5]
  GI50: > 100 µM (inactive)
[7]
  GI50: > 100 µM (inactive)
[8]
  GI50: > 10 µM (inactive)
[9]
  GI50: > 100 µM (inactive)
[10]
  GI50: > 100 µM (inactive)
[54]
  GI50: > 100 µM (inactive)
[11]
  GI50: > 100 µM (inactive)
[55]
  GI50: > 100 µM (inactive)
[12]
  GI50: > 100 µM
[13]
  GI50: > 100 µM (inactive)
[14]
  GI50: > 100 µM (inactive)
[16]
  GI50: > 100 µM (inactive)
[17]
  GI50: > 100 µM (inactive)
[18]
  GI50: > 100 µM (inactive)
[19]
  GI50: > 100 µM (inactive)
[20]
  GI50: > 100 µM (inactive)
[21]
  GI50: > 100 µM (inactive)
[22]
  GI50: > 100 µM (inactive)
[23]
  GI50: > 100 µM (inactive)
[24]
  GI50: > 100 µM (inactive)
[25]
  GI50: > 100 µM (inactive)
[56]
  GI50: > 100 µM (inactive)
[26]
  GI50: > 100 µM (inactive)
[27]
  GI50: > 100 µM (inactive)
[28]
  GI50: > 100 µM (inactive)
[30]
  GI50: > 100 µM (inactive)
[31]
  GI50: > 100 µM (inactive)
[32]
  GI50: > 100 µM (inactive)
[33]
  GI50: > 100 µM (inactive)
[34]
  GI50: > 100 µM (inactive)
[35]
  GI50: > 100 µM (inactive)
[36]
  GI50: > 100 µM (inactive)
[37]
  GI50: > 100 µM (inactive)
[38]
  GI50: > 100 µM (inactive)
[39]
  GI50: > 100 µM (inactive)
[40]
  GI50: > 100 µM (inactive)
[41]
  GI50: > 100 µM (inactive)
[42]
  GI50: > 100 µM (inactive)
[43]
  GI50: > 100 µM (inactive)
[44]
  GI50: > 100 µM (inactive)
[45]
  GI50: > 100 µM (inactive)
[46]
  GI50: > 100 µM (inactive)
[47]
  GI50: > 100 µM (inactive)
[48]
  GI50: > 100 µM (inactive)
[49]
  GI50: > 100 µM (inactive)
[50]
  GI50: > 100 µM (inactive)
[51]
  GI50: > 100 µM (inactive)
[52]
  GI50: > 100 µM (inactive)
[53]
  GI50: > 100 µM (inactive)
